One block for each compound: values may come before it.
How the values were obtained:
[1] = molecular target: human KAT II (hKAT II) enzyme (Homo sapiens, UniProt Q8N5Z0); experiment: KAT II Inhibition Spectra Assay; assay type: biochemical; details: Table 6; hKAT II, decrease in OD370, 37° C., 15-20 h; read-out: KATII IC50
Summary of the method: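 hKAT II (15 nM, 3× stock) converts L-kynurenine (3 mM, 3× stock) with α-ketoglutarate and PLP in Tris acetate; 15–20 h at 37 °C. Inhibition of the OD370 decrease read versus DMSO wells across a concentration range gives IC50.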

[2] = Prodrug in vivo pharmacokinetics in dogs (plasma, LC-MS-MS); set-up: species or system Dog (Beagle); details: for AUC / Cmax / Tmax / half-life: Beagle, dog
Description: Test substances (Examples 4 and 71-73) were administered by oral gavage to groups of two dogs. Example 71 was also administered intravenously.
Blood samples were taken at various times after administration and submitted to analysis for the parent drug (Example 71) and pro-drug (Examples 72 and 73) using an LC-MS-MS assay. Pharmacokinetic parameters derived from the plasma analytical data were determined using Watson LIMS 7.2.003 (Thermo Fisher Scientific, Waltham, Mass.). The results are given in FIG. 1 and Tables 8, 9, 10, and 11.

[3] = Prodrug in vivo pharmacokinetics in monkeys (plasma, LC-MS-MS); set-up: species or system Monkey (Cynomolgus); details: for AUC / Cmax / Tmax / half-life: cynomolgus monkey; for F: calculated using IV AUC of 476 ng · h/mL
Description: Test substances (Examples 4 and 71-73) were administered by oral gavage to groups of two monkeys.
Blood samples were taken at various times after administration and submitted to analysis for the parent drug (Example 4 and Example 71) and pro-drug (Examples 72 and 73) using an LC-MS-MS assay. […] Pharmacokinetic parameters derived from the plasma analytical data were determined using Watson LIMS 7.2.003 (Thermo Fisher Scientific, Waltham, Mass.). The results are given in FIG. 2 and Tables 13, 14, and 15.

[4] = plasma, po, 2 mg/kg, Example 71 in dog plasma after oral Example 71 (2 mg/kg active), Dog 1
[5] = plasma, po, 2 mg/kg, Example 71 in dog plasma after oral Example 71 (2 mg/kg active), Dog 2
[6] = plasma, po, 2 mg/kg, Example 71 in dog plasma after oral Example 71 (2 mg/kg active), Mean
[7] = Cynomolgus, plasma, po, 3 mg/kg, Example 71 in monkey plasma after oral Example 71 (3 mg/kg active), Mean
[8] = Cynomolgus, plasma, po, 3 mg/kg, Example 71 in monkey plasma after oral Example 71 (3 mg/kg active), Monkey 1
[9] = Cynomolgus, plasma, po, 3 mg/kg, Example 71 in monkey plasma after oral Example 71 (3 mg/kg active), Monkey 2
[10] = Example 71 in monkey plasma after oral Example 71 (3 mg/kg active), Mean
[11] = Example 71 in monkey plasma after oral Example 71 (3 mg/kg active), Monkey 1
[12] = Example 71 in monkey plasma after oral Example 71 (3 mg/kg active), Monkey 2
[13] = plasma, po, 1 mg/kg, Example 72 in dog plasma after oral Example 72 (1 mg/kg active), Dog 1
[14] = plasma, po, 1 mg/kg, Example 72 in dog plasma after oral Example 72 (1 mg/kg active), Dog 2
[15] = plasma, po, 1 mg/kg, Example 72 in dog plasma after oral Example 72 (1 mg/kg active), Mean

human KAT II (hKAT II) enzyme, sequence (Q8N5Z0 30-425): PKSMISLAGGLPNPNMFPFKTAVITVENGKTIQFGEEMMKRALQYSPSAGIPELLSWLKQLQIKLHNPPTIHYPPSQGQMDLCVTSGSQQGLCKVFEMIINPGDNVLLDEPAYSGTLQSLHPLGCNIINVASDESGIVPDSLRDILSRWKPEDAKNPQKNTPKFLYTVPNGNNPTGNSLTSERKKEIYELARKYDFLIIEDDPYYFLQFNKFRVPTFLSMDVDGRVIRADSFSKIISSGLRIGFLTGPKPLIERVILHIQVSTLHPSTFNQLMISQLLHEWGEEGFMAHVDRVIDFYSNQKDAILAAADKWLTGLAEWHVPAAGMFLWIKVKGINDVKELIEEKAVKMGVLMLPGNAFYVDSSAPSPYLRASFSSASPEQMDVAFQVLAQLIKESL

SMILES: Cl.N[C@H]1Cc2cc(Oc3ccccc3)ccc2N(O)C1=O [Example 71, (3S)-3-amino-1-hydroxy-6-phenoxy-3,4-dihydroquinolin-2(1H)-one, hydrochloride salt]
IC50 [1]: 22.7 nM
AUC ([2]; in vivo, exposure of Example 71 in dogs following intravenous administration of Example 71 at 0.5 mg/kg, read-out: AUC): 247 ng·h/mL
Cmax [2, 4]: 25.4 ng/mL
Tmax [2, 4]: 15 min
half-life [2, 4]: 26.3 min
AUC ([2]; plasma, po, 2 mg/kg, Example 71 in dog plasma after oral Example 71 (2 mg/kg active), Dog 1, read-out: AUC): 10.3 ng·h/mL
AUC ([2]; plasma, po, 2 mg/kg, Example 71 in dog plasma after oral Example 71 (2 mg/kg active), Dog 1, read-out: AUC Extrap): 10.7 ng·h/mL
Cmax [2, 5]: 15.4 ng/mL
Tmax [2, 5]: 15 min
half-life [2, 5]: 17.9 min
AUC ([2]; plasma, po, 2 mg/kg, Example 71 in dog plasma after oral Example 71 (2 mg/kg active), Dog 2, read-out: AUC): 12.2 ng·h/mL
AUC ([2]; plasma, po, 2 mg/kg, Example 71 in dog plasma after oral Example 71 (2 mg/kg active), Dog 2, read-out: AUC Extrap): 12.5 ng·h/mL
Cmax [2, 6]: 20.4 ng/mL
Tmax [2, 6]: 15 min
half-life [2, 6]: 22.1 min
AUC ([2]; plasma, po, 2 mg/kg, Example 71 in dog plasma after oral Example 71 (2 mg/kg active), Mean, read-out: AUC): 11.3 ng·h/mL
AUC ([2]; plasma, po, 2 mg/kg, Example 71 in dog plasma after oral Example 71 (2 mg/kg active), Mean, read-out: AUC Extrap): 11.6 ng·h/mL
% AUC Extrap ([2]; Example 71 in dog plasma after oral Example 71 (2 mg/kg active), Dog 1): 3.44%
% AUC Extrap ([2]; Example 71 in dog plasma after oral Example 71 (2 mg/kg active), Dog 2): 2.35%
% AUC Extrap ([2]; Example 71 in dog plasma after oral Example 71 (2 mg/kg active), Mean): 2.9%
F ([2]; Example 71 in dog plasma after oral Example 71 (2 mg/kg active), calculated using IV AUC of 247 ng · h/mL, Dog 1): 1.0%
F ([2]; Example 71 in dog plasma after oral Example 71 (2 mg/kg active), calculated using IV AUC of 247 ng · h/mL, Dog 2): 1.3%
F ([2]; Example 71 in dog plasma after oral Example 71 (2 mg/kg active), calculated using IV AUC of 247 ng · h/mL, Mean): 1.2%
AUC ([3]; Cynomolgus, in vivo, plasma exposure of Example 71 in monkeys following intravenous administration of Example 71 at 0.5 mg/kg, read-out: AUC): 476 ng·h/mL
Cmax [3, 7]: 53.4 ng/mL
Tmax [3, 7]: 22.8 min
half-life [3, 7]: 52.9 min
Cmax [3, 8]: 44 ng/mL
Tmax [3, 8]: 15 min
half-life [3, 8]: 62.4 min
Cmax [3, 9]: 62.8 ng/mL
Tmax [3, 9]: 30 min
half-life [3, 9]: 43.4 min
% AUC Extrap [3, 10]: 1.28%
% AUC Extrap [3, 11]: 2.19%
% AUC Extrap [3, 12]: 0.366%
F [3, 10]: 3.2%
F [3, 11]: 2.2%
F [3, 12]: 4.2%
AUC ([3]; plasma, po, 3 mg/kg, Example 71 in monkey plasma after oral Example 71 (3 mg/kg active), Mean, read-out: AUC): 94.8 ng·h/mL
AUC ([3]; plasma, po, 3 mg/kg, Example 71 in monkey plasma after oral Example 71 (3 mg/kg active), Mean, read-out: AUC Extrap): 95.4 ng·h/mL
AUC ([3]; plasma, po, 3 mg/kg, Example 71 in monkey plasma after oral Example 71 (3 mg/kg active), Monkey 1, read-out: AUC): 55.5 ng·h/mL
AUC ([3]; plasma, po, 3 mg/kg, Example 71 in monkey plasma after oral Example 71 (3 mg/kg active), Monkey 1, read-out: AUC Extrap): 56.7 ng·h/mL
AUC ([3]; plasma, po, 3 mg/kg, Example 71 in monkey plasma after oral Example 71 (3 mg/kg active), Monkey 2, read-out: AUC): 134 ng·h/mL
AUC ([3]; plasma, po, 3 mg/kg, Example 71 in monkey plasma after oral Example 71 (3 mg/kg active), Monkey 2, read-out: AUC Extrap): 134 ng·h/mL

AUC ([2]; plasma, iv, 0.47 mg/kg, exposure of Example 72 in dogs following intravenous administration of Example 72 at 0.47 mg/kg, read-out: AUC): 497 ng·h/mL
Cmax [2, 13]: 142 ng/mL
Tmax [2, 13]: 30 min
half-life [2, 13]: 139 min
AUC ([2]; plasma, po, 1 mg/kg, Example 72 in dog plasma after oral Example 72 (1 mg/kg active), Dog 1, read-out: AUC): 402 ng·h/mL
AUC ([2]; plasma, po, 1 mg/kg, Example 72 in dog plasma after oral Example 72 (1 mg/kg active), Dog 1, read-out: AUC Extrap): 455 ng·h/mL
Cmax [2, 14]: 248 ng/mL
Tmax [2, 14]: 60 min
half-life [2, 14]: 116 min
AUC ([2]; plasma, po, 1 mg/kg, Example 72 in dog plasma after oral Example 72 (1 mg/kg active), Dog 2, read-out: AUC): 721 ng·h/mL
AUC ([2]; plasma, po, 1 mg/kg, Example 72 in dog plasma after oral Example 72 (1 mg/kg active), Dog 2, read-out: AUC Extrap): 790 ng·h/mL
Cmax [2, 15]: 195 ng/mL
Tmax [2, 15]: 45 min
half-life [2, 15]: 128 min
AUC ([2]; plasma, po, 1 mg/kg, Example 72 in dog plasma after oral Example 72 (1 mg/kg active), Mean, read-out: AUC): 562 ng·h/mL
AUC ([2]; plasma, po, 1 mg/kg, Example 72 in dog plasma after oral Example 72 (1 mg/kg active), Mean, read-out: AUC Extrap): 623 ng·h/mL
% AUC Extrap ([2]; Example 72 in dog plasma after oral Example 72 (1 mg/kg active), Dog 1): 11.7%
% AUC Extrap ([2]; Example 72 in dog plasma after oral Example 72 (1 mg/kg active), Dog 2): 8.77%
% AUC Extrap ([2]; Example 72 in dog plasma after oral Example 72 (1 mg/kg active), Mean): 10.2%
F ([2]; Example 72 in dog plasma after oral Example 72 (1 mg/kg active), calculated using IV AUC of 497 ng · h/mL, Dog 1): 38%
F ([2]; Example 72 in dog plasma after oral Example 72 (1 mg/kg active), calculated using IV AUC of 497 ng · h/mL, Dog 2): 54%
F ([2]; Example 72 in dog plasma after oral Example 72 (1 mg/kg active), calculated using IV AUC of 497 ng · h/mL, Mean): 46%
Plasma levels of Example 72 ([3]; monkeys, oral gavage of Example 72, all time points): below the limit of quantitation
SMILES: CN(C)C(=O)ON1C(=O)[C@@H](N)Cc2cc(Oc3ccccc3)ccc21 [Example 72, (3S)-3-amino-1-[(dimethylcarbamoyl)oxy]-6-phenoxy-3,4-dihydroquinolin-2(1H)-one]

From patent publication US8183238B2, “Bicyclic and tricyclic compounds as KAT II inhibitors” (priority 2009, dated 2012)
